These results are taken from patent publication US20240158370A1, “CK1 alpha AND DUAL CK1 alpha / GSPT1 DEGRADING COMPOUNDS” (Innovo Therapeutics, Inc., priority 2022, published 2024).

By DC50 is commonly meant the concentration at which degradation of the target reaches its halfway point. A lower DC50 goes with degradation at low concentration.

One assay has as its target T1, CK1α (Homo sapiens, UniProt P48729+Q96SW2).
T1 construct: CSNK1A1-HiBit KI HEK293(LgBit) Cells; host or cells: HEK293(LgBit) knock-in cells
The experiment in a line: HiBiT degradation assay, CK1α, Procedure A. The note with it: six hours. In kind it is cell-based. Put shortly:
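Cells in DMEM+10% FBS at 1×10^6 cells/ml were added to pre-spotted compound (10-point dose response, 10 μM to 0.005 μM, 0.1% DMSO) and incubated 6 h at 37° C. Nano-Glo HiBiT lytic reagent was added and luminescence read. DC50 and Ymin came from 4-parameter curve fits.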

The next assay has as its target GSPT1 (Homo sapiens, UniProt P15170+Q96SW2). The assay is described as follows: HiBiT degradation assay, GSPT1, Procedure B (Molt 4_hGSPT1_HiBIT cells). In kind it is cell-based. Also on record: Molt 4_hGSPT1_HiBIT N-terminus tagged cells were generated using CRISPR technology; endogenous in cells; host or cells: Molt 4 cells, CRISPR-edited. The note with it: six hours. The method, then:
Molt 4_hGSPT1_HiBIT N-terminus tagged cells were generated using CRISPR technology. Cells were maintained in RPMI media (Thermo Fisher Scientific, Catalog #11875-093) containing 10% Fetal Bovine Serum (Thermo Fisher Scientific, Catalog #16140071) 1% Penicillin-Streptomycin (Thermo Fisher Scientific, Catalog #25200056). Cells were maintained at 37° C. in a 5% CO2 environment.
Compounds were spotted onto Cornin 384-Well, Cell Culture-Treated, Flat-Bottom, Low Flange Microplate (Fisher Scientific, Catalog #07-201-013) using a Tecan D300e digital dispenser. Ten-point dose response curves spanning from 10 μM to 0.005 μM with a 0.1% DMSO tolerance were used.
Cells were centrifuged for 5 minutes at 1200 RPMs. Cell culture media was aspirated off and cells were resuspended with RPMI+10% FBS. Cell density was determined using a Denovix CellDrop BF cell counter. Cell density was adjusted to 1×10^6 cells/ml. 40 μl of cells was added to compound treated tissue culture plates and incubated for six hours at 37° C. After six hours, cell culture plates were removed from tissue culture incubator and cooled to room temperature. 40 μl of Nano-GloHiBiT Lytic Detection Reagent (Promega, Catalog #N3040) was added to each well. Plates were placed on an orbital shaker (600 rpm) for 20 minutes. Luminescence was measured using an Envsion plate reader (Perkin Elmer). IC50 curves and Ymin were generated using a 4-parameter curve fit with GraphPad Prism software (Prism Corporation).
Results from the HiBiT assay (DC50 (nM) and Ymin (% remaining)) are shown below. All CK1α data was generated according to Procedure A. GSPT1 data for Examples 1-600, 603-620 and 703-705 was generated according to Procedure A. GSPT1 data for Examples 601, 621-702 and 706-735 was generated according to Procedure B.
On the technique in general: The HiBiT peptide binds its large partner to form an active luciferase.

Sequence of GSPT1 (P15170 whole entry): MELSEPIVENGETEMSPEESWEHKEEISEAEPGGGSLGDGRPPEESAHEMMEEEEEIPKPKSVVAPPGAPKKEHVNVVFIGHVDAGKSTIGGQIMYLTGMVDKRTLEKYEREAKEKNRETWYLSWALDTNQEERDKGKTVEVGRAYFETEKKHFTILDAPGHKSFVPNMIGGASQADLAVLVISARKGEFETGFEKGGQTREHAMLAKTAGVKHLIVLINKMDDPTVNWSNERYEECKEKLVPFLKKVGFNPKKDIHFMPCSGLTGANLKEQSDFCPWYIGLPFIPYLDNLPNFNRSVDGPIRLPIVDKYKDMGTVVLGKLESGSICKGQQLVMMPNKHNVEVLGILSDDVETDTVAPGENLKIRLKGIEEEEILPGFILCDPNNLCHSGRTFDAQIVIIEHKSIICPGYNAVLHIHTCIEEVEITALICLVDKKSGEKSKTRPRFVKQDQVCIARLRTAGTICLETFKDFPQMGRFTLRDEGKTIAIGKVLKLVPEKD
Sequence of GSPT1 (Q96SW2 whole entry): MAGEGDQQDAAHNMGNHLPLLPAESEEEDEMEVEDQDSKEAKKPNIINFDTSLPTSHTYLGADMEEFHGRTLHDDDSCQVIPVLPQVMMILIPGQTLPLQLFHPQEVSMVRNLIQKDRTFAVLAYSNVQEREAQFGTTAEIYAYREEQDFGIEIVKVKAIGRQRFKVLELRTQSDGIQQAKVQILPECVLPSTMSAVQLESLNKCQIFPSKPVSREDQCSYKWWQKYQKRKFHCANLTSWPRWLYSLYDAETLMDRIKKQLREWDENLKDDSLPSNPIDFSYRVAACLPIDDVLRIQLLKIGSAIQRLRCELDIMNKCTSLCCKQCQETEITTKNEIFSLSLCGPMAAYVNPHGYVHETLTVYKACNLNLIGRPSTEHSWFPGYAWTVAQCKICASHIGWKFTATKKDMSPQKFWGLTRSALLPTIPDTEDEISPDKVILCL
Sequence of GSPT1 (Q16531 whole entry partner): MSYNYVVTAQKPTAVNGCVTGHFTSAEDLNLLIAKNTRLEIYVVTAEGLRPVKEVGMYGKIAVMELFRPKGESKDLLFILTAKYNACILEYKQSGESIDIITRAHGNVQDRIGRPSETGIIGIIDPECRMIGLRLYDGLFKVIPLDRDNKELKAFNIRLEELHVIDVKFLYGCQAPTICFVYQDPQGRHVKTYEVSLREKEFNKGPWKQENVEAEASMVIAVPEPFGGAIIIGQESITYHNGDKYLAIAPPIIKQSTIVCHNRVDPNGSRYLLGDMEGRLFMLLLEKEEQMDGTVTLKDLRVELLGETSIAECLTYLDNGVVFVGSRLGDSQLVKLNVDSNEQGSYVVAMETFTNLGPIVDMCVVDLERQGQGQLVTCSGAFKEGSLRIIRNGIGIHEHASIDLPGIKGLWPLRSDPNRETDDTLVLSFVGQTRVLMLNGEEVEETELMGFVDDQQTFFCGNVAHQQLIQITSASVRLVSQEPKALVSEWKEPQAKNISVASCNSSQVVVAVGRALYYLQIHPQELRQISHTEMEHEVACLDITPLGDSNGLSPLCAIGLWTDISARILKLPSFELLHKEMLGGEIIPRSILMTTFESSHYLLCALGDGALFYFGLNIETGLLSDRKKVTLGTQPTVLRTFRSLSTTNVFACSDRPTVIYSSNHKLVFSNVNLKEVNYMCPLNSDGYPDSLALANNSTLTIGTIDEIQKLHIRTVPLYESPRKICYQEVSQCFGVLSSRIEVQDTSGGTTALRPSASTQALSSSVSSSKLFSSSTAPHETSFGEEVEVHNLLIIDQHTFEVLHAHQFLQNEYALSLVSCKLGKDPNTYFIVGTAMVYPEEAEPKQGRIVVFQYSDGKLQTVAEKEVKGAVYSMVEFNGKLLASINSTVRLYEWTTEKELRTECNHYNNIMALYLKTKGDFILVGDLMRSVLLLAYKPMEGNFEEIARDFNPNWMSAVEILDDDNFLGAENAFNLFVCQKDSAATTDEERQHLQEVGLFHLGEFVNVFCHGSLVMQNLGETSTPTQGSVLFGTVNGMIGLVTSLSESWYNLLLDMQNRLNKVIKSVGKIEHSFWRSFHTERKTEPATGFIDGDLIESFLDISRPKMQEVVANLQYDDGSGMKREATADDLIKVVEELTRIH
T1 sequence (P48729 whole entry): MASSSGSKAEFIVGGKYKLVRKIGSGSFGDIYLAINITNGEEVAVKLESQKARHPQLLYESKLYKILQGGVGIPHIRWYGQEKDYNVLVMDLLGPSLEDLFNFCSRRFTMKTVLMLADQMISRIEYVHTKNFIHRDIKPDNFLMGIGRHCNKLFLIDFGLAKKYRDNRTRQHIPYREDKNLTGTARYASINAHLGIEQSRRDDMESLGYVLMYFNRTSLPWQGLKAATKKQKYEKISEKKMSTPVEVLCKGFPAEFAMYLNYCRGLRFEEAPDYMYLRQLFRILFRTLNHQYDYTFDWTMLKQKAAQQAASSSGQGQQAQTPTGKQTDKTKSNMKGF
T1 sequence (Q96SW2 whole entry): as the sequence (Q96SW2 whole entry) above
T1 sequence (Q16531 whole entry partner): as the sequence (Q16531 whole entry partner) above

As to `Cn1cc(-c2ccc3c(c2)CN(C2CCC(=O)NC2=O)C3=O)nc1-c1ccc(-n2cccn2)cc1` (stereo not shown) [Example 665], on CK1α, the “CK1α Ymin” value is “E (E = >25-75% remaining)” and the DC50 is below 0.025 µM. On GSPT1, the 50% degradation concentration (DC50) is at least 0.025 µM and the “GSPT1 Ymin” value is listed as “D (D = >10- 25% remaining)”.
`COc1ccc(Cl)cc1-c1nc(-c2ccc3c(c2)CN(C2CCC(=O)NC2=O)C3=O)cn1C` (stereo not shown) [Example 643]: on CK1α, the “CK1α Ymin” value was “D (D = >10- 25% remaining)” and the half-maximal degradation concentration (DC50) is below 0.025 µM. Also, at GSPT1, the 50% degradation concentration (DC50) is at least 0.025 µM and the “GSPT1 Ymin” value was “F (F = >75-100% remaining)”.
`Cn1ncc(-c2ccc3c(c2)CN(C2CCC(=O)NC2=O)C3=O)c1C1=COCCC1` (stereo not shown) [Example 695]: on CK1α, the “CK1α Ymin” value was “E (E = >25-75% remaining)” and the 50% degradation concentration (DC50) is below 0.025 µM. Besides, at GSPT1, the DC50 was below 0.025 µM and the “GSPT1 Ymin” value is listed as “F (F = >75-100% remaining)”.
`Cn1cc(-c2ccc3c(c2)CN(C2CCC(=O)NC2=O)C3=O)nc1-c1ccncc1` (stereo not shown) [Example 630]: at CK1α, the “CK1α Ymin” value is “C (C = 0-10% remaining)” and the DC50 was at least 0.025 µM. For the same molecule, at GSPT1, the 50% degradation concentration (DC50) is at least 0.025 µM and the “GSPT1 Ymin” value was “F (F = >75-100% remaining)”.
Take `Cn1ncc(-c2ccc3c(c2)CN(C2CCC(=O)NC2=O)C3=O)c1C1CCOCC1` (stereo not shown) [Example 694]: on CK1α, the “CK1α Ymin” value was “E (E = >25-75% remaining)” and the DC50 was at least 0.025 µM. Moreover, on GSPT1, the DC50 is at least 0.025 µM and the “GSPT1 Ymin” value was “F (F = >75-100% remaining)”.
Take `COc1ccc(Cn2cc(-c3nc(-c4ccc5c(c4)CN(C4CCC(=O)NC4=O)C5=O)cn3C)cn2)cc1` (stereo not shown) [Example 625]: on CK1α, the “CK1α Ymin” value is “C (C = 0-10% remaining)” and the DC50 is below 0.025 µM. Further, at GSPT1, the half-maximal degradation concentration (DC50) is at least 0.025 µM and the “GSPT1 Ymin” value is listed as “F (F = >75-100% remaining)”.
As to `Cn1cc(-c2ccc3c(c2)CN(C2CCC(=O)NC2=O)C3=O)nc1-c1ccc(F)c(C#N)c1` (stereo not shown) [Example 677], on CK1α, the “CK1α Ymin” value is on record as “E (E = >25-75% remaining)” and the half-maximal degradation concentration (DC50) was below 0.025 µM. Besides, at GSPT1, the DC50 was at least 0.025 µM.
In the case of `Cc1ccc(-c2nc(-c3ccc4c(c3)CN(C3CCC(=O)NC3=O)C4=O)cn2C)c(F)c1` (stereo not shown) [Example 670], on CK1α, the “CK1α Ymin” value is given as “E (E = >25-75% remaining)” and the DC50 is below 0.025 µM. Also, on GSPT1, the DC50 was at least 0.025 µM and the “GSPT1 Ymin” value was “F (F = >75-100% remaining)”.
For `Cn1cc(-c2ccc3c(c2)CN(C2CCC(=O)NC2=O)C3=O)nc1-c1ccc(F)cc1F` (stereo not shown) [Example 653] the same measures were “D (D = >10- 25% remaining)”, below 0.025 µM, at least 0.025 µM and “F (F = >75-100% remaining)”.
For `Cn1cc(-c2ccc3c(c2)CN(C2CCC(=O)NC2=O)C3=O)nc1-c1ccccc1Cl` (stereo not shown) [Example 639] the same measures were “C (C = 0-10% remaining)”, below 0.025 µM, at least 0.025 µM and “E (E = >25-75% remaining)”.
For `Cn1nc(-c2ccc3c(c2)CN(C2CCC(=O)NC2=O)C3=O)nc1N1CCCC1` (stereo not shown) [Example 713, 3-(5-(1-methyl-5-(pyrrolidin-1-yl)-1H-1,2,4-triazol-3-yl)-1-oxoisoindolin-2-yl)piperidine-2,6-dione] the same measures were “D (D = >10- 25% remaining)”, below 0.025 µM, below 0.025 µM and “F (F = >75-100% remaining)”.
Turning to `Cn1ncc(-c2ccc3c(c2)CN(C2CCC(=O)NC2=O)C3=O)c1C1=CCOCC1` (stereo not shown) [Example 693], on CK1α, the “CK1α Ymin” value is given as “E (E = >25-75% remaining)” and the DC50 is below 0.025 µM. In addition, on GSPT1, the DC50 is at least 0.025 µM and the “GSPT1 Ymin” value is recorded as “F (F = >75-100% remaining)”.
For `Cn1cc(-c2ccc3c(c2)CN(C2CCC(=O)NC2=O)C3=O)nc1-c1ccccc1C(F)(F)F` (stereo not shown) [Example 649] the same measures were “D (D = >10- 25% remaining)”, below 0.025 µM, below 0.025 µM and “E (E = >25-75% remaining)”.
For `Cn1ncc(-c2ccc3c(c2)CN(C2CCC(=O)NC2=O)C3=O)c1C1=CCN(CC(F)(F)F)CC1` (stereo not shown) [Example 702], in that order: “E (E = >25-75% remaining)”, at least 0.025 µM, at least 0.025 µM and “F (F = >75-100% remaining)”.
For `Cn1cc(-c2ccc3c(c2)CN(C2CCC(=O)NC2=O)C3=O)nc1-c1ccsc1` (stereo not shown) [Example 664] the same measures were “E (E = >25-75% remaining)”, below 0.025 µM, at least 0.025 µM and “E (E = >25-75% remaining)”.
For the molecule `Cn1ncc(-c2ccc3c(c2)CN(C2CCC(=O)NC2=O)C3=O)c1C1=CCC(F)(F)CC1` (stereo not shown) [Example 698], at CK1α, the “CK1α Ymin” value was “F (F = >75-100% remaining)” and the half-maximal degradation concentration (DC50) is below 0.025 µM. In addition, at GSPT1, the DC50 was at least 0.025 µM and the “GSPT1 Ymin” value was “F (F = >75-100% remaining)”.
Consider `Cn1cc(-c2ccc3c(c2)CN(C2CCC(=O)NC2=O)C3=O)nc1-c1ccc2c(c1)CC(=O)N2` (stereo not shown) [Example 722], for which, at CK1α, the “CK1α Ymin” value is “D (D = >10- 25% remaining)” and the half-maximal degradation concentration (DC50) is at least 0.025 µM. Moreover, at GSPT1, the DC50 is below 0.025 µM and the “GSPT1 Ymin” value was “F (F = >75-100% remaining)”.
For `Cc1nc(-c2ccc3c(c2)CN(C2CCC(=O)NC2=O)C3=O)nn1-c1ccccc1` (stereo not shown) [Example 712, 3-(5-(5-methyl-1-phenyl-1H-1,2,4-triazol-3-yl)-1-oxoisoindolin-2-yl) piperidine-2,6-dione] the same measures were “D (D = >10- 25% remaining)”, below 0.025 µM, below 0.025 µM and “F (F = >75-100% remaining)”.
For `Cn1cc(-c2ccc3c(c2)CN(C2CCC(=O)NC2=O)C3=O)nc1-c1ccc(Cl)cc1F` (stereo not shown) [Example 644] the same measures were “D (D = >10- 25% remaining)”, below 0.025 µM, at least 0.025 µM and “F (F = >75-100% remaining)”.
For `CC(=O)Nc1ccc(-c2nc(-c3ccc4c(c3)CN(C3CCC(=O)NC3=O)C4=O)cn2C)cc1` (stereo not shown) [Example 723], in that order: “C (C = 0-10% remaining)”, below 0.025 µM, at least 0.025 µM and “F (F = >75-100% remaining)”.
Take `COc1ccc(Cl)c(-c2nc(-c3ccc4c(c3)CN(C3CCC(=O)NC3=O)C4=O)cn2C)c1` (stereo not shown) [Example 688]: at CK1α, the “CK1α Ymin” value was “C (C = 0-10% remaining)” and the DC50 was below 0.025 µM. For the same molecule, at GSPT1, the half-maximal degradation concentration (DC50) is below 0.025 µM and the “GSPT1 Ymin” value is listed as “F (F = >75-100% remaining)”.
For the molecule `Cn1cc(-c2ccc3c(c2)CN(C2CCC(=O)NC2=O)C3=O)nc1C1(C)CCCCC1` (stereo not shown) [Example 714, 3-(5-(1-methyl-2-(1-methylcyclohexyl)-1H-imidazol-4-yl)-1-oxoisoindolin-2-yl)piperidine-2,6-dione], at CK1α, the “CK1α Ymin” value was “E (E = >25-75% remaining)” and the half-maximal degradation concentration (DC50) is below 0.025 µM. Moreover, at GSPT1, the DC50 is below 0.025 µM and the “GSPT1 Ymin” value is on record as “F (F = >75-100% remaining)”.
On to `Cn1cc(-c2ccc3c(c2)CN(C2CCC(=O)NC2=O)C3=O)nc1-c1cccc2c1CCC2` (stereo not shown) [Example 689], for which, at CK1α, the “CK1α Ymin” value is recorded as “C (C = 0-10% remaining)” and the half-maximal degradation concentration (DC50) is below 0.025 µM. Besides, on GSPT1, the 50% degradation concentration (DC50) is at least 0.025 µM and the “GSPT1 Ymin” value is recorded as “F (F = >75-100% remaining)”.
For `Cn1ncc(-c2ccc3c(c2)CN(C2CCC(=O)NC2=O)C3=O)c1C1=CCNCC1` (stereo not shown) [Example 690] the same measures were “E (E = >25-75% remaining)”, at least 0.025 µM, at least 0.025 µM and “F (F = >75-100% remaining)”.
For `Cn1cc(-c2ccc3c(c2)CN(C2CCC(=O)NC2=O)C3=O)nc1-c1ccc(F)cc1Cl` (stereo not shown) [Example 647], in that order: “D (D = >10- 25% remaining)”, below 0.025 µM, at least 0.025 µM and “F (F = >75-100% remaining)”.
For `Cn1cc(-c2ccc3c(c2)CN(C2CCC(=O)NC2=O)C3=O)nc1-c1ccc2ncccc2c1` (stereo not shown) [Example 660], at CK1α, the “CK1α Ymin” value was “D (D = >10- 25% remaining)” and the DC50 was below 0.025 µM. In addition, on GSPT1, the DC50 was below 0.025 µM and the “GSPT1 Ymin” value is “E (E = >25-75% remaining)”.
